Where two headings read alike, the source gives them in different places.
Molecular target: T1, human P2X4 (Homo sapiens, UniProt Q99571)
T1 sequence (Q99571 1-388): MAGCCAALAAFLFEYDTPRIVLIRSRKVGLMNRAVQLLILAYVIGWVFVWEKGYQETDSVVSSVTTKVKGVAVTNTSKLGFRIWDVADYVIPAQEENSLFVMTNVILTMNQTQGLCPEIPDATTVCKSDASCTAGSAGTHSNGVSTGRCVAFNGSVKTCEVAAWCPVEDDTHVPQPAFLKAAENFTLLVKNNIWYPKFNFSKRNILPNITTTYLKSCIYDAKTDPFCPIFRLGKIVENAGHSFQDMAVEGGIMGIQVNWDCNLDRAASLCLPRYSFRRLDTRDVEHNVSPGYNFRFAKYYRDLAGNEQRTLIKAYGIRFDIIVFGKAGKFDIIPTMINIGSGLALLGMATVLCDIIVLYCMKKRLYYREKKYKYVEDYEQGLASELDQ
Assay: Human P2X4 HEK Cell FLIPR Assay
Assay type: cell-based
Details: agonist Bz-ATP at EC80; for Emax: percentage of maximal inhibition, read-out: Human P2X4 HEK Cells (FLIPR Assay) avg Efficacy [%]; for IC50: individual values listed where some fall outside detection range
In short: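 HEK293 cells stably expressing human P2X4, Fluo8-AM loaded 30 min at 37° C, then compound 30 min at room temperature (0.5% DMSO, pH 7.4 buffer with 1.8 mM CaCl2). Bz-ATP at its daily-determined EC80 added; calcium fluorescence read over 120 sec; IC50 from peak RFU normalized to agonist control, triplicates.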

Which results are given for NS(=O)(=O)c1cc(NC(=O)Cc2cc(F)ccc2Cl)ccc1-c1cnn(C(F)F)c1 [Example 228, 2-(2-Chloro-5-fluorophenyl)-N-{4-[1-(difluoromethyl)-1H-pyrazol-4-yl]-3-sulfamoyl-phenyl}acetamide]?
Emax (HEK293, HEK293 cells): 92%; IC50 (HEK293 cells): 37 nM

For N#Cc1cnn(-c2ncc(NC(=O)Cc3ccccc3Cl)cc2S(N)(=O)=O)c1 [Example 383, 2-(2-Chlorophenyl)-N-[6-(4-cyano-1H-pyrazol-1-yl)-5-sulfamoylpyridin-3-yl]acetamide], which Emax (HEK293, HEK293 cells) is on record?
The Emax was 93%.

What about the IC50 (HEK293 cells) of the same compound?
The IC50 was 45 nM.

What does the source list for NS(=O)(=O)c1cc(NC(=O)Cc2cc(F)cc(F)c2)ccc1-n1cc(C(F)(F)F)cn1 [Example 115, 2-(3,5-Difluorophenyl)-N-{3-sulfamoyl-4-[4-(trifluoromethyl)-1H-pyrazol-1-yl]phenyl}-acetamide]?
Emax (HEK293, HEK293 cells): 57%; IC50 (HEK293 cells): 802 nM

For NS(=O)(=O)c1cc(NC(=O)Cc2ccccc2F)ccc1-c1cnn(C(F)F)c1 [Example 296, N-{4-[1-(Difluoromethyl)-1H-pyrazol-4-yl]-3-sulfamoylphenyl}-2-(2-fluorophenyl)acetamide], which Emax (HEK293, HEK293 cells) is on record?
The Emax was 87%.

And the IC50 (HEK293 cells)?
Its IC50 is 136 nM.

NS(=O)(=O)c1cc(NC(=O)Cc2cccnc2Cl)ccc1-n1cc(C(F)(F)F)cn1 [Example 126, 2-(2-Chloropyridin-3-yl)-N-{3-sulfamoyl-4-[4-(trifluoromethyl)-1H-pyrazol-1-yl]phenyl}acetamide] was tested. Which Emax (HEK293, HEK293 cells) did it give?
The Emax was 92%.

And the IC50 (HEK293 cells)?
Its IC50 is 1910 nM.

Which results are given for CC(C)Cc1ncn(-c2ccc(NC(=O)Cc3ccccc3Cl)cc2S(N)(=O)=O)n1 [Example 29, 2-(2-Chlorophenyl)-N-[4-(3-isobutyl-1H-1,2,4-triazol-1-yl)-3-sulfamoylphenyl]-acetamide]?
Emax (HEK293, HEK293 cells): 75%; IC50 (HEK293 cells): 113 nM

Which results are given for NS(=O)(=O)c1cc(NC(=O)Cc2ccc(Cl)cc2Cl)ccc1-n1cc(Cl)cn1 [Example 79, N-[4-(4-Chloro-1H-pyrazol-1-yl)-3-sulfamoylphenyl]-2-(2,4-dichlorophenyl)acetamide]?
Emax (HEK293, HEK293 cells): 78%; IC50 (HEK293 cells): 2030 nM

With N#Cc1cnn(-c2ncc(NC(=O)Cc3ccccc3F)cc2S(N)(=O)=O)c1 [Example 382, N-[6-(4-Cyano-1H-pyrazol-1-yl)-5-sulfamoylpyridin-3-yl]-2-(2-fluorophenyl)acetamide] as the compound, how does the Emax (HEK293, HEK293 cells) read?
The Emax was 87%.

And the IC50 (HEK293 cells)?
The IC50 was 315 nM.

Which results are given for N#Cc1cnn(-c2ccc(NC(=O)Cc3ccccc3Br)cc2S(N)(=O)=O)c1 [Example 188, 2-(2-Bromophenyl)-N-[4-(4-cyano-1H-pyrazol-1-yl)-3-sulfamoylphenyl]acetamide]?
Emax (HEK293, HEK293 cells): 89%; IC50 (HEK293 cells): 31 nM

Which results are given for NS(=O)(=O)c1cc(NC(=O)Cc2c(F)cccc2Cl)ccc1-c1cnn(C2CC2)c1 [Example 333, 2-(2-Chloro-6-fluorophenyl)-N-[4-(1-cyclopropyl-1H-pyrazol-4-yl)-3-sulfamoylphenyl]acetamide]?
Emax (HEK293, HEK293 cells): 101%; IC50 (HEK293 cells): 15 nM

Which Emax (HEK293, HEK293 cells) does the source give for NS(=O)(=O)c1cc(NC(=O)Cc2ccccc2F)ccc1-n1cccn1 [Example 393, 2-(2-Fluorophenyl)-N-[4-(1H-pyrazol-1-yl)-3-sulfamoylphenyl]acetamide] here?
The Emax was 49%.

For Cc1cc(F)c(Br)cc1CC(=O)Nc1ccc(-n2cc(C(F)(F)F)cn2)c(S(N)(=O)=O)c1 [Example 141, 2-(5-Bromo-4-fluoro-2-methylphenyl)-N-{3-sulfamoyl-4-[4-(trifluoromethyl)-1H-pyrazol-1-yl]phenyl}acetamide], which Emax (HEK293, HEK293 cells) is on record?
Its Emax is 96%.

What about the IC50 (HEK293 cells) of the same compound?
The IC50 was 638 nM.

Which Emax (HEK293, HEK293 cells) does the source give for Cc1ccc(CC(=O)Nc2ccc(-c3ccc(Cl)nc3)c(S(N)(=O)=O)c2)cc1 [Example 469, N-[4-(6-Chloropyridin-3-yl)-3-sulfamoylphenyl]-2-(4-methylphenyl)acetamide] here?
Its Emax is 90%.

What about the IC50 (HEK293 cells) of the same compound?
The IC50 was 453 nM.

With COCCc1cnn(-c2ccc(NC(=O)Cc3ccccc3F)cc2S(N)(=O)=O)c1 [Example 265, 2-(2-Fluorophenyl)-N-{4-[4-(2-methoxyethyl)-1H-pyrazol-1-yl]-3-sulfamoyl-phenyl}acetamide] as the compound, how does the Emax (HEK293, HEK293 cells) read?
Its Emax is 84%.

And the IC50 (HEK293 cells)?
Its IC50 is 352 nM.

With NS(=O)(=O)c1cc(NC(=O)Cc2ccccc2Cl)ccc1-n1cnc(Cl)c1 [Example 33, N-[4-(4-Chloro-1H-imidazol-1-yl)-3-sulfamoylphenyl]-2-(2-chlorophenyl)acetamide] as the compound, how does the Emax (HEK293, HEK293 cells) read?
The Emax was 79%.

What about the IC50 (HEK293 cells) of the same compound?
Its IC50 is 31 nM.

Cc1cn(-c2ccc(NC(=O)Cc3ccccc3Cl)cc2S(N)(=O)=O)nc1C(F)(F)F [Example 14, 2-(2-Chlorophenyl)-N-{4-[4-methyl-3-(trifluoromethyl)-1H-pyrazol-1-yl]-3-sulfamoylphenyl}acetamide] was tested. Which Emax (HEK293, HEK293 cells) did it give?
The Emax was 26%.

And the IC50 (HEK293 cells)?
The IC50 was over 25000 nM.

Which results are given for NS(=O)(=O)c1cc(NC(=O)Cc2ccccc2Cl)ccc1-n1ccc(F)n1 [Example 257, 2-(2-Chlorophenyl)-N-[4-(3-fluoro-1H-pyrazol-1-yl)-3-sulfamoylphenyl]acetamide]?
Emax (HEK293, HEK293 cells): 81%; IC50 (HEK293 cells): 51 nM

With CC(C)n1cc(-c2ccc(NC(=O)Cc3ccccc3Cl)cc2S(N)(=O)=O)cn1 [Example 359, 2-(2-Chlorophenyl)-N-{4-[1-(propan-2-yl)-1H-pyrazol-4-yl]-3-sulfamoylphenyl}-acetamide] as the compound, how does the Emax (HEK293, HEK293 cells) read?
The Emax was 84%.

What about the IC50 (HEK293 cells) of the same compound?
Its IC50 is 77 nM.

What does the source list for NS(=O)(=O)c1cc(NC(=O)Cc2ccccc2F)ccc1-n1cc(C(F)F)cn1 [Example 378, N-{4-[4-(Difluoromethyl)-1H-pyrazol-1-yl]-3-sulfamoylphenyl}-2-(2-fluorophenyl)acetamide]?
Emax (HEK293, HEK293 cells): 84%; IC50 (HEK293 cells): 89 nM

How did the Emax (HEK293, HEK293 cells) turn out when NS(=O)(=O)c1cc(NC(=O)Cc2ccccc2Cl)ccc1-c1cncc(N2CCCC2)c1 [Example 322, 2-(2-Chlorophenyl)-N-{4-[5-(pyrrolidin-1-yl)pyridin-3-yl]-3-sulfamoylphenyl}acetamide] was run?
The Emax was 81%.

And the IC50 (HEK293 cells)?
The IC50 was 186 nM.

How did the IC50 (HEK293 cells) turn out when NS(=O)(=O)c1cc(NC(=O)Cc2ccccc2F)ccc1-c1nnc(C(F)(F)F)o1 [Example 390, 2-(2-Fluorophenyl)-N-{3-sulfamoyl-4-[5-(trifluoromethyl)-1,3,4-oxadiazol-2-yl]phenyl}acetamide] was run?
The IC50 was 1700 nM.

What about the Emax (HEK293 cells) of the same compound?
Its Emax is 91%.

With NS(=O)(=O)c1cc(NC(=O)Cc2ccccc2Cl)ccc1-n1cc(NCC(F)(F)F)cn1 [Example 515, 2-(2-Chlorophenyl)-N-(3-sulfamoyl-4-{4-[(2,2,2-trifluoroethyl)amino]-1H-pyrazol-1-yl}phenyl)acetamide] as the compound, how does the Emax (HEK293, HEK293 cells) read?
The Emax was 101%.

And the IC50 (HEK293 cells)?
Its IC50 is 45 nM.

How did the Emax (HEK293, HEK293 cells) turn out when CC(C)(C)c1ncn(-c2ccc(NC(=O)Cc3ccccc3Cl)cc2S(N)(=O)=O)n1 [Example 23, N-[4-(3-tert-Butyl-1H-1,2,4-triazol-1-yl)-3-sulfamoylphenyl]-2-(2-chlorophenyl)-acetamide] was run?
Its Emax is 89%.

And the IC50 (HEK293 cells)?
The IC50 was 1180 nM.

For NS(=O)(=O)c1cc(NC(=O)Cc2ccccc2Cl)cnc1-c1cnn(C(F)F)c1 [Example 297, 2-(2-Chlorophenyl)-N-{6-[1-(difluoromethyl)-1H-pyrazol-4-yl]-5-sulfamoylpyridin-3-yl}acetamide], which Emax (HEK293, HEK293 cells) is on record?
The Emax was 87%.

What about the IC50 (HEK293 cells) of the same compound?
The IC50 was 32 nM.

With NS(=O)(=O)c1cc(NC(=O)Cc2cc(Cl)ccc2Cl)ccc1-n1cc(C(F)(F)F)cn1 [Example 136, 2-(2,5-Dichlorophenyl)-N-{3-sulfamoyl-4-[4-(trifluoromethyl)-1H-pyrazol-1-yl]phenyl}-acetamide] as the compound, how does the Emax (HEK293, HEK293 cells) read?
The Emax was 84%.

And the IC50 (HEK293 cells)?
The IC50 was 211 nM.

Which results are given for CC(C)Nc1ncc(-c2ccc(NC(=O)Cc3ccccc3Cl)cc2S(N)(=O)=O)cn1 [Example 310, 2-(2-Chlorophenyl)-N-{4-[2-(propan-2-ylamino)pyrimidin-5-yl]-3-sulfamoylphenyl}acetamide]?
Emax (HEK293, HEK293 cells): 59%; IC50 (HEK293 cells): 86 nM

Which results are given for Cc1ccc(CC(=O)Nc2ccc(-n3cc(Cl)cn3)c(S(N)(=O)=O)c2)cc1 [Example 172, N-[4-(4-Chloro-1H-pyrazol-1-yl)-3-sulfamoylphenyl]-2-(4-methylphenyl)acetamide]?
Emax (HEK293, HEK293 cells): 58%; IC50 (HEK293 cells): 48 nM

For CC(C)(O)c1nc(-c2ccc(NC(=O)Cc3ccccc3Cl)cc2S(N)(=O)=O)cs1 [Example 436, 2-(2-Chlorophenyl)-N-{4-[2-(2-hydroxypropan-2-yl)-1,3-thiazol-4-yl]-3-sulfamoylphenyl}acetamide], which Emax (HEK293, HEK293 cells) is on record?
The Emax was 56%.

And the IC50 (HEK293 cells)?
Its IC50 is 12500 nM.

What does the source list for NS(=O)(=O)c1cc(NC(=O)Cc2cccc(F)c2)ccc1-n1cnc(C(F)(F)F)n1 [Example 55, 2-(3-Fluorophenyl)-N-{3-sulfamoyl-4-[3-(trifluoromethyl)-1H-1,2,4-triazol-1-yl]-phenyl}acetamide]?
Emax (HEK293, HEK293 cells): 74%; IC50 (HEK293 cells): 1400 nM

NS(=O)(=O)c1cc(NC(=O)Cc2ccccc2Cl)ccc1-n1cc(CNCC(F)F)cn1 [Example 260, 2-(2-Chlorophenyl)-N-[4-(4-{[(2,2-difluoroethyl)amino]methyl}-1H-pyrazol-1-yl)-3-sulfamoylphenyl]acetamide] was tested. Which Emax (HEK293, HEK293 cells) did it give?
The Emax was 100%.

What about the IC50 (HEK293 cells) of the same compound?
Its IC50 is 398 nM.

With NS(=O)(=O)c1cc(NC(=O)Cc2ccc(F)cc2)ccc1-n1cc(F)cn1 [Example 149, 2-(4-Fluorophenyl)-N-[4-(4-fluoro-1H-pyrazol-1-yl)-3-sulfamoylphenyl]acetamide] as the compound, how does the Emax (HEK293, HEK293 cells) read?
The Emax was 56%.

And the IC50 (HEK293 cells)?
The IC50 was 211 nM.

Cc1ccc(F)c(CC(=O)Nc2ccc(-n3cc(Cl)cn3)c(S(N)(=O)=O)c2)c1Cl [Example 95, 2-(2-Chloro-6-fluoro-3-methylphenyl)-N-[4-(4-chloro-1H-pyrazol-1-yl)-3-sulfamoyl-phenyl]acetamide] was tested. Which Emax (HEK293, HEK293 cells) did it give?
Its Emax is 87%.

What about the IC50 (HEK293 cells) of the same compound?
The IC50 was 54 nM.

Source: patent US11524938B2, “Aromatic sulfonamide derivatives” (Bayer Pharma Aktiengesellschaft, priority 2016, dated 2022)
